Among the data in US9969752B2, “Inhibitors of HIF prolyl hydroxylase” (MERCK SHARP & DOHME CORP., priority 2014, dated 2018) are IC50 values, retold here.

Each structure is given as a SMILES string.

The target of the first assay is T1, Human HIF-PHD2 (Homo sapiens, UniProt Q9GZT9).
T1 construct: FLAG-tagged full length PHD2 expressed in and purified from baculovirus-infected Sf9 cells; FLAG; made in house; host or cells: baculovirus-infected Sf9 cells
T1 sequence (Q9GZT9 whole entry): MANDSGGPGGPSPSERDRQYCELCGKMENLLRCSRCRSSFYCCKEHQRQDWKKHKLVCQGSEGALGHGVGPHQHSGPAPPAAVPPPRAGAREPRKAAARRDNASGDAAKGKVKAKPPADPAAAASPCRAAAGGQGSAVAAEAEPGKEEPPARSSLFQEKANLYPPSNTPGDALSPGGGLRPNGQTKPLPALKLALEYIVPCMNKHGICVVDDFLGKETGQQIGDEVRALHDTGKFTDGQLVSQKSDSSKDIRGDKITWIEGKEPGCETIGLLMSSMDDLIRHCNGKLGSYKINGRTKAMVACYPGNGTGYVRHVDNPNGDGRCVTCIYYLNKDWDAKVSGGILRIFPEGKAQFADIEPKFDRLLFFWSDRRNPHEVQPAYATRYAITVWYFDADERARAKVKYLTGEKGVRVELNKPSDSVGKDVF
Kind of assay: Inhibition of the hydroxylation of a HIF peptide by PHD2 (time resolved fluorescence, 384-well). Format: biochemical. The following applies: FLAG-tagged full length PHD2; 0.2 μM 2-oxoglutarate, 0.5 μM HIF-1α peptide; 45 minutes at room temperature; read-out: Human HIF-PHD2 IC50.
On to `CS(=O)(=O)c1cc2c3c(c1)c(O)c(C(=O)NCC(=O)O)c(=O)n3CCC2` [Example 49, 2-(1-Hydroxy-9-(methylsulfonyl)-3-oxo-3,5,6,7-tetrahydropyrido[3,2,1-ij]quinoline-2-carboxamido)acetic acid], for which the IC50 came out at 1.4 nM. Regarding `O=C(O)CNC(=O)c1c(O)c2ccnc3c2n(c1=O)CC(c1ccc(C(F)(F)F)cc1)O3` (stereo not shown) [Example 51, 2-(7-Hydroxy-5-oxo-2-(4-(trifluoromethyl)phenyl)-3,5-dihydro-2H-[1,4]oxazino[2,3,4-ij][1,7]naphthyridine-6-carboxamido)acetic acid], the IC50 turned out to be 13 nM. Still for that read-out and setting: under `N#Cc1ccc(C2Cn3c(=O)c(C(=O)NCC(=O)O)c(O)c4cc(C#N)cc(c43)O2)cc1` (stereo not shown) [Example 52, 2-(9-Cyano-2-(4-cyanophenyl)-7-hydroxy-5-oxo-3,5-dihydro-2H-[1,4]oxazino[2,3,4-ij]quinoline-6-carboxamido)acetic acid] stands 0.5 nM; under `O=C(O)CNC(=O)c1c(O)c2cc(Br)cc3c2n(c1=O)CC(c1ccc(Br)cc1)O3` (stereo not shown) [Example 53, 2-(9-Bromo-2-(4-bromophenyl)-7-hydroxy-5-oxo-3,5-dihydro-2H-[1,4]oxazino[2,3,4-ij]quinoline-6-carboxamido)acetic acid], 3.5 nM. Still for that read-out and setting: next, `N#Cc1ccc(C2Cn3c(=O)c(C(=O)NCC(=O)O)c(O)c4c(C#N)ccc(c43)O2)cc1` (stereo not shown) [Example 54, 2-(8-Cyano-2-(4-cyanophenyl)-7-hydroxy-5-oxo-3,5-dihydro-2H-[1,4]oxazino[2,3,4-ij]quinoline-6-carboxamido)acetic acid]: 1.1 nM; `O=C(O)CNC(=O)c1c(O)c2c(Br)ccc3c2n(c1=O)CC(c1ccc(Br)cc1)O3` (stereo not shown) [Example 55, 2-(8-Bromo-2-(4-bromophenyl)-7-hydroxy-5-oxo-3,5-dihydro-2H-[1,4]oxazino[2,3,4-ij]quinoline-6-carboxamido)acetic acid]: 2.5 nM.

Consider `N#Cc1ccc(C2Cn3c(=O)c(C(=O)NCC(=O)O)c(O)c4ccc(C#N)c(c43)O2)cc1` (stereo not shown) [Example 56, 2-(10-Cyano-2-(4-cyanophenyl)-7-hydroxy-5-oxo-3,5-dihydro-2H-[1,4]oxazino[2,3,4-ij]quinoline-6-carboxamido)acetic acid], for which the IC50 came to 0.6 nM.

Turning to `O=C(O)CNC(=O)c1c(O)c2ccc(Br)c3c2n(c1=O)CC(c1ccc(Br)cc1)O3` (stereo not shown) [Example 57, 2-(10-Bromo-2-(4-bromophenyl)-7-hydroxy-5-oxo-3,5-dihydro-2H-[1,4]oxazino[2,3,4-ij]quinoline-6-carboxamido)acetic acid], the IC50 stood at 2.7 nM. For `O=C(O)CNC(=O)c1c(O)c2cccc3c2n(c1=O)CC(c1ccc(C(F)(F)F)cc1)[S+]3[O-]` (stereo not shown) [Example 59, 2-(7-Hydroxy-1-oxido-5-oxo-2-(4-(trifluoromethyl)phenyl)-3,5-dihydro-2H-[1,4]thiazino[2,3,4-ij]quinoline-6-carboxamido)acetic acid], the IC50 amounted to 1 nM. For the molecule `O=C(O)CNC(=O)c1c(O)c2cccc3c2n(c1=O)CC(c1ccc(C(F)(F)F)cc1)S3(=O)=O` (stereo not shown) [Example 60, 2-(7-Hydroxy-1,1-dioxido-5-oxo-2-(4-(trifluoromethyl)phenyl)-3,5-dihydro-2H-[1,4]thiazino[2,3,4-ij]quinoline-6-carboxamido)acetic acid], the IC50 came out at 0.8 nM.

With `Cc1ccc2c3c1c(O)c(C(=O)NCC(=O)O)c(=O)n3CC(c1ccc(C(F)(F)F)cc1)O2` (stereo not shown) [Example 63, 2-(7-Hydroxy-8-methyl-5-oxo-2-(4-(trifluoromethyl)phenyl)-3,5-dihydro-2H-[1,4]oxazino[2,3,4-ij]quinoline-6-carboxamido)acetic acid], the IC50 was 13 nM. Same read-out and setting: next, `O=C(O)CNC(=O)c1c(O)c2cccc3c2n(c1=O)CC(c1ccc(C(F)(F)F)cc1)N3` (stereo not shown) [Example 64, 2-(7-Hydroxy-5-oxo-2-(4-(trifluoromethyl)phenyl)-1,2,3,5-tetrahydropyrido[1,2,3-de]quinoxaline-6-carboxamido)acetic acid]: 4.5 nM. Still for that read-out and setting: next, `CN1c2cccc3c(O)c(C(=O)NCC(=O)O)c(=O)n(c23)CC1c1ccc(C(F)(F)F)cc1` (stereo not shown) [Example 65, 2-(7-Hydroxy-1-methyl-5-oxo-2-(4-(trifluoromethyl)phenyl)-1,2,3,5-tetrahydropyrido[1,2,3-de]quinoxaline-6-carboxamido)acetic acid]: 34 nM. As for `O=C(O)CNC(=O)c1c(O)c2cc(F)cc3c2n(c1=O)CC(c1ccc(C(F)(F)F)cc1)O3` (stereo not shown) [Example 66, 2-(9-Fluoro-7-hydroxy-5-oxo-2-(4-(trifluoromethyl)phenyl)-3,5-dihydro-2H-[1,4]oxazino[2,3,4-ij]quinoline-6-carboxamido)acetic acid], the IC50 came to 5 nM.

On to `O=C(O)CNC(=O)c1c(O)c2ccc(F)c3c2n(c1=O)CC(c1ccc(C(F)(F)F)cc1)O3` (stereo not shown) [Example 67, 2-(10-Fluoro-7-hydroxy-5-oxo-2-(4-(trifluoromethyl)phenyl)-3,5-dihydro-2H-[1,4]oxazino[2,3,4-ij]quinoline-6-carboxamido)acetic acid], for which the IC50 was found to be 4.3 nM. On the same count and under the same terms, under `CS(=O)(=O)c1ccc(C2Cn3c(=O)c(C(=O)NCC(=O)O)c(O)c4ccc(C(F)(F)F)c(c43)O2)cc1` (stereo not shown) [Example 76, 2-(7-Hydroxy-2-(4-(methylsulfonyl)phenyl)-5-oxo-10-(trifluoromethyl)-3,5-dihydro-2H-[1,4]oxazino[2,3,4-ij]quinoline-6-carboxamido)acetic acid] stands 1.4 nM.

Take `COc1ccc2c3c1c(O)c(C(=O)NCC(=O)O)c(=O)n3CC(c1ccc(C(F)(F)F)cc1)O2` (stereo not shown) [Example 79, 2-(7-hydroxy-8-methoxy-5-oxo-2-(4-(trifluoromethyl)phenyl)-3,5-dihydro-2H-[1,4]oxazino[2,3,4-ij]quinoline-6-carboxamido)acetic acid]: the IC50 stood at 4 nM.

Consider `O=C(O)CNC(=O)c1c(O)c2c(O)ccc3c2n(c1=O)CC(c1ccc(C(F)(F)F)cc1)O3` (stereo not shown) [Example 80, 2-(7,8-dihydroxy-5-oxo-2-(4-(trifluoromethyl)phenyl)-3,5-dihydro-2H-[1,4]oxazino[2,3,4-ij]quinoline-6-carboxamido)acetic acid], for which the IC50 stood at 12 nM.

For `COc1cc2c3c(c1)c(O)c(C(=O)NCC(=O)O)c(=O)n3CC(c1ccc(C(F)(F)F)cc1)O2` (stereo not shown) [Example 81, 2-(7-Hydroxy-9-methoxy-5-oxo-2-(4-(trifluoromethyl)phenyl)-3,5-dihydro-2H-[1,4]oxazino[2,3,4-ij]quinoline-6-carboxamido)acetic acid], the IC50 is 2.9 nM. With `O=C(O)CNC(=O)c1c(O)c2cc(O)cc3c2n(c1=O)CC(c1ccc(C(F)(F)F)cc1)O3` (stereo not shown) [Example 82, 2-(7,9-Dihydroxy-5-oxo-2-(4-(trifluoromethyl)phenyl)-3,5-dihydro-2H-[1,4]oxazino[2,3,4-ij]quinoline-6-carboxamido)acetic acid], the IC50 turned out to be 2.7 nM. Same read-out and setting: next, `O=C(O)CNC(=O)c1c(O)c2cccc3c2n(c1=O)CC(c1ccc(C(F)(F)F)nc1)C3` (stereo not shown) [Example 83, 2-(1-Hydroxy-3-oxo-6-(6-(trifluoromethyl)pyridin-3-yl)-3,5,6,7-tetrahydropyrido[3,2,1-ij]quinoline-2-carboxamido)acetic acid]: 5 nM. On the same count and under the same terms, next, `N#Cc1cc2c3c(c1)c(O)c(C(=O)NCC(=O)O)c(=O)n3CC(c1ccc(C(F)(F)F)nc1)C2` (stereo not shown) [Example 84, 2-(9-cyano-1-hydroxy-3-oxo-6-(6-(trifluoromethyl)pyridin-3-yl)-3,5,6,7-tetrahydropyrido[3,2,1-ij]quinoline-2-carboxamido)acetic acid]: 0.9 nM; `CS(=O)(=O)c1cc2c3c(c1)c(O)c(C(=O)NCC(=O)O)c(=O)n3CC(c1ccc(C(F)(F)F)nc1)C2` (stereo not shown) [Example 85, 2-(1-hydroxy-9-(methylsulfonyl)-3-oxo-6-(6-(trifluoromethyl)pyridin-3-yl)-3,5,6,7-tetrahydropyrido[3,2,1-ij]quinoline-2-carboxamido)acetic acid]: 0.9 nM; `N#Cc1cc2c3c(c1)c(O)c(C(=O)NCC(=O)O)c(=O)n3CC(c1ccc(C(F)(F)F)cc1)[S+]2[O-]` (stereo not shown) [Example 91, 2-(9-Cyano-7-hydroxy-1-oxido-5-oxo-2-(4-(trifluoromethyl)phenyl)-3,5-dihydro-2H-[1,4]thiazino[2,3,4-ij]quinoline-6-carboxamido)acetic acid]: 0.839 nM. Still for that read-out and setting: next, `N#Cc1cc2c3c(c1)c(O)c(C(=O)NCC(=O)O)c(=O)n3C(c1ccc(C(F)(F)F)cc1)CN2` (stereo not shown) [Example 92, 2-(9-Cyano-7-hydroxy-5-oxo-3-(4-(trifluoromethyl)phenyl)-1,2,3,5-tetrahydropyrido[1,2,3-de]quinoxaline-6-carboxamido)acetic acid]: 3.1 nM. On to `N#Cc1ccc2c3c1c(O)c(C(=O)NCC(=O)O)c(=O)n3CC(c1ccc(C(F)(F)F)cc1)N2` (stereo not shown) [Example 94, 2-(8-Cyano-7-hydroxy-5-oxo-2-(4-(trifluoromethyl)phenyl)-1,2,3,5-tetrahydropyrido[1,2,3-de]quinoxaline-6-carboxamido)acetic acid], for which the IC50 stood at 0.8 nM. Still for that read-out and setting: next, `CN1CC(c2ccc(C(F)(F)F)cc2)n2c(=O)c(C(=O)NCC(=O)O)c(O)c3cc(C#N)cc1c32` (stereo not shown) [Example 95, 2-(9-Cyano-7-hydroxy-1-methyl-5-oxo-3-(4-(trifluoromethyl)phenyl)-1,2,3,5-tetrahydropyrido[1,2,3-de]quinoxaline-6-carboxamido)acetic acid]: 5.5 nM.

Staying with this assay, now noted: FLAG-tagged full length PHD2; 0.2 μM 2-oxoglutarate, 0.5 μM HIF-1α peptide; 45 minutes at room temperature; read-out: MS m/z (M + 1)+ and human HIF-PHD2 IC50.
Regarding `O=C(O)CNC(=O)c1c(O)c2cccc3c2n(c1=O)CC(c1ccc(C(F)(F)F)cc1)[S+]3[O-]` (stereo not shown) [Example 61, 2-(7-hydroxy-1-oxido-5-oxo-2-(4-(trifluoromethyl)phenyl)-3,5-dihydro-2H-[1,4]thiazino[2,3,4-ij]quinoline-6-carboxamido)acetic acid], the IC50 amounted to 1 nM.
